Experimental data: US20220402925A1, “COMPOUNDS AND METHODS FOR THE TREATMENT OF CYSTIC FIBROSIS” (Flatley Discovery Lab, LLC, priority 2019, published 2022)

These compounds were tested against T1, F508del CFTR (Homo sapiens, UniProt P13569, DEL508-508) (assay: Equivalent current assay in primary CF airway epithelial cells (Corrector Activity, NAUC normalized to 3 μM VX809)). Conditions: NAUC as % of positive control (VX-809).
T1 construct: Primary CF airway epithelial cells were obtained from the UNC Cystic Fibrosis Tissue Procurement and Cell Culture Core; host or cells: primary CF airway epithelial cells
Assay type: cell-based
Summary of the method: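 Differentiated primary CF airway cells treated basolaterally 24 h at 37° C with compound (0.1% DMSO). Equivalent current recorded after 5 μM benzamil, stimulation with 10 μM forskolin plus 1 μM VX-770 or 3 μM FDL176, and block by 20 μM CFTR-172; vehicle-subtracted AUC normalized to 3 μM VX809; EC50 from sigmoid fit, Hill slope 1.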

T1 sequence (P13569 with tags, fused parts or gaps DEL508-508): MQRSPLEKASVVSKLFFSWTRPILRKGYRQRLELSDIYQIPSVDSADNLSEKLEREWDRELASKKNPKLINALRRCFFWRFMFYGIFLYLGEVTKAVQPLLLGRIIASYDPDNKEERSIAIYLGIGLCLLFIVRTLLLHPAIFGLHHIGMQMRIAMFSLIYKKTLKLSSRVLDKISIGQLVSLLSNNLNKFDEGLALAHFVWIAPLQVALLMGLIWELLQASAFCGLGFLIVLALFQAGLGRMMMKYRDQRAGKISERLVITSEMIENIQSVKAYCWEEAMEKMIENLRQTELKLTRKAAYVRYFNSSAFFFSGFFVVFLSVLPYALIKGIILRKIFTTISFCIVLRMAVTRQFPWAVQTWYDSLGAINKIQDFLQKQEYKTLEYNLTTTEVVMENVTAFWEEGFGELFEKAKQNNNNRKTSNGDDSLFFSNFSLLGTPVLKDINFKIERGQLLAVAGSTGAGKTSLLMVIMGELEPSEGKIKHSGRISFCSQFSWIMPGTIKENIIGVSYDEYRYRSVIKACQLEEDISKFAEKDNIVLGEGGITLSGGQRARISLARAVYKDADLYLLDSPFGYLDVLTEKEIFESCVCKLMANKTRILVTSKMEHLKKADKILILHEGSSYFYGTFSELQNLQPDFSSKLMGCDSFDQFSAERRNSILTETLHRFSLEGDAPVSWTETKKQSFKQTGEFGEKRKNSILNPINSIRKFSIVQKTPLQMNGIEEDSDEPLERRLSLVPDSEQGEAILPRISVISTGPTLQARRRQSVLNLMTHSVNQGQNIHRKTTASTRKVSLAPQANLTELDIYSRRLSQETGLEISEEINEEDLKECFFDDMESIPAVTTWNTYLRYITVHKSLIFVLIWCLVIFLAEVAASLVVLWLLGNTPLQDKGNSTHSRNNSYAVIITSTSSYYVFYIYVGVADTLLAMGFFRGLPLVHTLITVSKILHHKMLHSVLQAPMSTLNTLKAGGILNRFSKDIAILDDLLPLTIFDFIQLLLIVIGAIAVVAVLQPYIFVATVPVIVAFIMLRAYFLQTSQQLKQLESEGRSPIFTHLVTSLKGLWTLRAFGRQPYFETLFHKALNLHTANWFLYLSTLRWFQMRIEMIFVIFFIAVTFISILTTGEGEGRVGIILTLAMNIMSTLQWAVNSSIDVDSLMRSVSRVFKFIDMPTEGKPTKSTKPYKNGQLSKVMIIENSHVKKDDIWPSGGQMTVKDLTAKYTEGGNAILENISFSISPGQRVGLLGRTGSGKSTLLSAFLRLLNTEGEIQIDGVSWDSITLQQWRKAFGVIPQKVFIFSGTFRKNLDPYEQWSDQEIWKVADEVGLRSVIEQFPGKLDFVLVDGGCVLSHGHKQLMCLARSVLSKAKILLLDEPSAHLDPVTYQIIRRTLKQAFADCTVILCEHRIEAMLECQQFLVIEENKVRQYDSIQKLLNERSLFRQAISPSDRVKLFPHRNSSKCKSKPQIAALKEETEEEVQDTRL

Corr Activity (NAUC)	Structure (SMILES)
+++ (NAUC>70% of positive control)	CCN(C(=O)Cn1nc(-c2cc(C)cc(C#N)c2)c2occc2c1=O)c1cc2c(cc1C)OC(F)(F)O2 [Example 164]
+++ (NAUC>70% of positive control)	Cc1cc(C#N)cc(-c2nn(CC(=O)N(C)c3cc4c(cc3C)OC(F)(F)O4)c(=O)c3ccoc23)c1 [Example 165]
+++ (NAUC>70% of positive control)	Cc1cc2c(cc1N(C)C(=O)Cn1nc(-c3cc(F)cc(C#N)c3)c3occc3c1=O)OC(F)(F)O2 [Example 166]
+++ (NAUC>70% of positive control)	CCN(C(=O)Cn1nc(-c2cc(F)cc(C#N)c2)c2occc2c1=O)c1cc2c(cc1C)OC(F)(F)O2 [Example 167]
+++ (NAUC>70% of positive control)	Cc1cc2c(cc1N(C)C(=O)Cn1nc(-c3cc(Cl)cc(C#N)c3)c3occc3c1=O)OC(F)(F)O2 [Example 168]
+++ (NAUC>70% of positive control)	CCN(C(=O)Cn1nc(-c2cc(Cl)cc(C#N)c2)c2occc2c1=O)c1cc2c(cc1C)OC(F)(F)O2 [Example 169]
++ (NAUC 70-40% of positive control)	Cc1c(N(C)C(=O)Cn2nc(-c3cc(F)cc(C#N)c3)c3occc3c2=O)ccc2c1OC(F)(F)O2 [Example 170]
+++ (NAUC>70% of positive control)	Cc1c(N(C)C(=O)Cn2nc(-c3cc(Cl)cc(C#N)c3)c3occc3c2=O)ccc2c1OC(F)(F)O2 [Example 171]
+++ (NAUC>70% of positive control)	CCN(C(=O)Cn1nc(-c2cc(Cl)cc(C#N)c2)c2occc2c1=O)c1ccc2c(c1C)OC(F)(F)O2 [Example 172]
+++ (NAUC>70% of positive control)	CCN(C(=O)Cn1nc(-c2cc(F)cc(C#N)c2)c2occc2c1=O)c1ccc2c(c1C)OC(F)(F)O2 [Example 173]
+++ (NAUC>70% of positive control)	CCN(C(=O)Cn1nc(-c2cc(F)cc(C#N)c2)c2occc2c1=O)c1ccc2c(c1)OC(F)(F)O2 [Example 177]
+ (NAUC<40% of positive control)	Cc1cc2c(cc1N(C)C(=O)Cn1nc(-c3cc(F)cc(C#N)c3)c3occ(C(F)(F)F)c3c1=O)OC(F)(F)O2 [Example 178]
++ (NAUC 70-40% of positive control)	CCN(C(=O)Cn1nc(-c2cc(F)cc(C#N)c2)c2occ(C(F)(F)F)c2c1=O)c1cc2c(cc1C)OC(F)(F)O2 [Example 179]
+++ (NAUC>70% of positive control)	CCN(C(=O)Cn1nc(-c2cc(F)cc(C#N)c2)c2oc(C(F)F)cc2c1=O)c1ccc2c(c1)OC(F)(F)O2 [Example 191]
+++ (NAUC>70% of positive control)	Cc1cc2c(cc1N(C)C(=O)Cn1nc(-c3cc(Cl)cc(C#N)c3)c3oc(C(F)F)cc3c1=O)OC(F)(F)O2 [Example 193]
+++ (NAUC>70% of positive control)	CCN(C(=O)Cn1nc(-c2cc(Cl)cc(C#N)c2)c2oc(C(F)F)cc2c1=O)c1cc2c(cc1C)OC(F)(F)O2 [Example 194]

Continued, compound first:

Structure (SMILES)	Corr Activity (NAUC)
Cc1nc2ccc(N(C)C(=O)Cn3nc(-c4cccc(C#N)c4)c4oc5ccccc5c4c3=O)cc2o1 [Example 158]	+++ (NAUC>70% of positive control)
CCN(C(=O)Cn1nc(-c2cccc(C#N)c2)c2oc3ccccc3c2c1=O)c1ccc2c(c1)OC(F)(F)O2 [Example 159]	+++ (NAUC>70% of positive control)
O=C(Cn1nc(-c2cccc(F)c2)c2occc2c1=O)N1CCCc2c1ccc1c2OC(F)(F)O1 [Example 162]	+++ (NAUC>70% of positive control)
Cc1cc(C#N)cc(-c2nn(CC(=O)N3CCCc4c3ccc3c4OC(F)(F)O3)c(=O)c3ccoc23)c1 [Example 163]	+++ (NAUC>70% of positive control)
CCN(C(=O)Cn1nc(-c2cc(Cl)cc(Cl)c2)c2occc2c1=O)c1ccc2c(c1)OC(F)(F)O2 [Example 174]	++ (NAUC 70-40% of positive control)
CCN(C(=O)Cn1nc(-c2cc(F)cc(F)c2)c2occc2c1=O)c1ccc2c(c1)OC(F)(F)O2 [Example 175]	+++ (NAUC>70% of positive control)
CCN(C(=O)Cn1nc(-c2cc(F)cc(Cl)c2)c2occc2c1=O)c1ccc2c(c1)OC(F)(F)O2 [Example 176]	+++ (NAUC>70% of positive control)
CN(C(=O)Cn1nc(-c2cccc(C#N)c2)c2oc(C(F)F)cc2c1=O)c1ccc2c(c1)OC(F)(F)O2 [Example 180, 2-(7-(3-cyanophenyl)-2-(difluoromethyl)-4-oxofuro[2,3-d]pyridazin-5(4H)-yl)-N-(2,2-difluorobenzo[d][1,3]dioxol-5-yl)-N-methylacetamide]	+++ (NAUC>70% of positive control)
CN(C(=O)Cn1nc(-c2cccc(Cl)c2)c2oc(NC(=O)OC(C)(C)C)cc2c1=O)c1ccc2c(c1)OC(F)(F)O2 [Example 181, tert-butyl (7-(3-chlorophenyl)-5-(2-((2,2-difluorobenzo[d][1,3]dioxol-5-yl)(methyl)amino)-2-oxoethyl)-4-oxo-4,5-dihydrofuro[2,3-d]pyridazin-2-yl)carbamate]	+++ (NAUC>70% of positive control)
CN(C(=O)Cn1nc(-c2cccc(C#N)c2)c2oc(CN3CCCCC3)cc2c1=O)c1ccc2c(c1)OC(F)(F)O2 [Example 182, 2-(7-(3-cyanophenyl)-4-oxo-2-(piperidin-1-ylmethyl)furo[2,3-d]pyridazin-5(4H)-yl)-N-(2,2-difluorobenzo[d][1,3]dioxol-5-yl)-N-methylacetamide]	+++ (NAUC>70% of positive control)
CC(O)c1cc2c(=O)n(CC(=O)N(C)c3ccc4c(c3)OC(F)(F)O4)nc(-c3cccc(Cl)c3)c2o1 (centres unmarked) [Example 183, 2-(7-(3-chlorophenyl)-2-(1-hydroxyethyl)-4-oxofuro[2,3-d]pyridazin-5(4H)-yl)-N-(2,2-difluorobenzo[d][1,3]dioxol-5-yl)-N-methylacetamide]	+++ (NAUC>70% of positive control)
CN(C(=O)Cn1nc(-c2cccc(Cl)c2)c2oc(C(C)(C)O)cc2c1=O)c1ccc2c(c1)OC(F)(F)O2 [Example 184, 2-(7-(3-chlorophenyl)-2-(2-hydroxypropan-2-yl)-4-oxofuro[2,3-d]pyridazin-5(4H)-yl)-N-(2,2-difluorobenzo[d][1,3]dioxol-5-yl)-N-methylacetamide]	+++ (NAUC>70% of positive control)
CN(C(=O)Cn1nc(-c2cccc(Cl)c2)c2oc(C(F)F)cc2c1=O)c1ccc2c(c1)OC(F)(F)O2 [Example 185]	+++ (NAUC>70% of positive control)
CCN(C(=O)Cn1nc(-c2cccc(Cl)c2)c2oc(C(F)F)cc2c1=O)c1ccc2c(c1)OC(F)(F)O2 [Example 186]	+++ (NAUC>70% of positive control)
CCN(C(=O)Cn1nc(-c2cccc(C#N)c2)c2oc(C(F)F)cc2c1=O)c1ccc2c(c1)OC(F)(F)O2 [Example 187]	+++ (NAUC>70% of positive control)
CCN(C(=O)Cn1nc(-c2cc(C#N)cc(C(C)(C)C)c2)c2oc(C(F)F)cc2c1=O)c1ccc2c(c1)OC(F)(F)O2 [Example 188]	+++ (NAUC>70% of positive control)
CCN(C(=O)Cn1nc(-c2cc(C)cc(C#N)c2)c2oc(C(F)F)cc2c1=O)c1ccc2c(c1)OC(F)(F)O2 [Example 189]	+++ (NAUC>70% of positive control)
CCN(C(=O)Cn1nc(-c2cc(C#N)cc(OC)c2)c2oc(C(F)F)cc2c1=O)c1ccc2c(c1)OC(F)(F)O2 [Example 190]	+++ (NAUC>70% of positive control)
CCN(C(=O)Cn1nc(-c2cc(Cl)cc(C#N)c2)c2oc(C(F)F)cc2c1=O)c1ccc2c(c1)OC(F)(F)O2 [Example 192]	+++ (NAUC>70% of positive control)
CCN(C(=O)Cn1nc(-c2cc(F)cc(C#N)c2)c2oc(C(F)F)cc2c1=O)c1ccc2c(c1C)OC(F)(F)O2 [Example 195]	++ (NAUC 70-40% of positive control)
CCN(C(=O)Cn1nc(-c2cc(Cl)cc(C#N)c2)c2oc(C(F)F)cc2c1=O)c1ccc2c(c1C)OC(F)(F)O2 [Example 196]	++ (NAUC 70-40% of positive control)
CN(C(=O)Cn1nc(-c2cccc(C#N)c2)c2oc(C(F)F)cc2c1=O)c1ccc2c(c1F)OC(F)(F)O2 [Example 197]	+++ (NAUC>70% of positive control)
CCN(C(=O)Cn1nc(-c2cc(C#N)cc(C(F)F)c2)c2oc(C(F)F)cc2c1=O)c1ccc2c(c1)OC(F)(F)O2 [Example 198]	++ (NAUC 70-40% of positive control)
CN(C(=O)Cn1nc(-c2cccc(C#N)c2)c2oc(CN3CCOCC3)cc2c1=O)c1ccc2c(c1)OC(F)(F)O2 [Example 199]	+ (NAUC<40% of positive control)
CN(C(=O)Cn1nc(-c2cccc(C#N)c2)c2oc(CN3CCCC3)cc2c1=O)c1ccc2c(c1)OC(F)(F)O2 [Example 200]	++ (NAUC 70-40% of positive control)
CCN(C(=O)Cn1nc(-c2cccc(C#N)c2)c2oc(CN3CCCCC3)cc2c1=O)c1ccc2c(c1)OC(F)(F)O2 [Example 201]	+++ (NAUC>70% of positive control)
CCN(C(=O)Cn1nc(-c2cccc(C#N)c2)c2oc(CN3CCOCC3)cc2c1=O)c1ccc2c(c1)OC(F)(F)O2 [Example 202]	+++ (NAUC>70% of positive control)
CCN(C(=O)Cn1nc(-c2cccc(C#N)c2)c2oc(CN3CCCC3)cc2c1=O)c1ccc2c(c1)OC(F)(F)O2 [Example 203]	+++ (NAUC>70% of positive control)
